Results from paper PMC6152131, “Pharmacokinetic Study of Biotransformation Products from an Anxiolytic Fraction of Tilia americana” (Molecules : A Journal of Synthetic Chemistry and Natural …, 2017).
Like-named read-outs stand apart in the source and are kept apart here.

Key:
[1] = Stability of flavonoids and biotransformation products in mouse plasma under different handling conditions; format: in vitro ADME, mice
Method: (§1) Plasma dried pulverized samples were extracted with methanol (HPLC grade, Merck). The extracts were filtered with Teflon membrane dimensions 0.45 μm by 13 mm (Millex®-LCR); 20 μL of each filtered sample was injected into the HPLC equipment. The measurements were performed in a (Waters corporation, Milford, CT, USA) 2695 HPLC with a diode array detector (Waters 2996) and processed with the Empower Pro 1.0 software. A Chromolith Performance® RP-18e 100 × 4.6 mm (Merck KGaA, Darmstadt, Germany) was used. The mobile phase consisted of a mixture of acetonitrile and water with the proportion 55:45 and a flow rate of 1 mL/min. The concentrations of the flavonoids and the biotransformation products were obtained by comparison with a pre-built calibration curve at λ = 220 nm.
[…] The investigation enclosed here expected manipulation conditions during all the sample storage and process periods, which included the stability data from the freeze/thaw, bench-top, autosampler, and long–term stability tests.
For all stability studies, fresh QC samples were evaluated by using a freshly prepared standard curve for the measurements. The concentrations obtained from all the stability studies were compared with the fresh QC samples, and the percentage concentration deviation was calculated. The analytes were considered stable in the mouse plasma when the concentration difference between the freshly prepared samples and the stability samples was less than 15%.

[2] = Plasma concentration after a single oral dose of the anxiolytic fraction (HPLC); format: in vivo, ICR mice; settings: oral 200 mg/kg anxiolytic fraction, immediately after administration and over 24 h
Method: Eleven groups of ten animals each were randomly formed. All animals were orally administered with 200 mg/kg of the active fraction. Animals were anaesthetized with ether, and blood samples were obtained from the retroorbital sinus with a heparinized capillary, each group was examined at different times (0, 5, 10, 15, 30, 60, 120, 240, 480, 720, and 1440 min) after the active fraction was administered. […] Then the plasma samples were frozen and lyophilized. The dry plasma was subsequently used to extract and measure the concentration of the flavonoids and biotransformation products.
as §1
To evaluate the suitability of the assay for the pharmacokinetic studies, 200 mg/kg of the active fraction was orally administered to the animals. Ten animals were used in each group at different times (0, 5, 10, 15, 30, 60, 120, 240, 480, 720, and 1440 min). Pharmacokinetic calculations were performed using the observed data. All data was subsequently processed using the PKSolver add-in program for Microsoft Excel written in Visual Basic for Applications. All values obtained were expressed in mean ± standard deviation.

[3] = design: method as in PMID 11151743; settings: glucoronides and sulphates of quercetin found in plasma; cited from earlier work
[4] = system: intestinal epithelial cells; design: method as in PMID 25761590; settings: compared with the aglycone kaempherol; cited from earlier work
[5] = room temperature (25 °C), 0 h, high nominal conc.
[6] = room temperature (25 °C), 0 h, high nominal conc. (rutin 7.00; quercetin glucoside, quercitrin, tiliroside 44.37; kaempferol 4.50; m-HPAA, p-HPAA, DOPAC 31.25 µg/mL), n = 6
[7] = room temperature (25 °C), 0 h, low nominal conc.
[8] = room temperature (25 °C), 0 h, low nominal conc. (rutin 1.75; quercetin glucoside, quercitrin, tiliroside 11.02; kaempferol 1.12; m-HPAA, p-HPAA, DOPAC 1.95 µg/mL), n = 6
[9] = room temperature (25 °C), 0 h, medium nominal conc.
[10] = room temperature (25 °C), 8 h, high nominal conc.
[11] = room temperature (25 °C), 8 h, high nominal conc. (7.00; 44.37; 4.50; 31.25 µg/mL), n = 6
[12] = room temperature (25 °C), 8 h, low nominal conc.
[13] = room temperature (25 °C), 8 h, low nominal conc. (1.75; 11.02; 1.12; 1.95 µg/mL), n = 6
[14] = room temperature (25 °C), 8 h, medium nominal conc.
[15] = room temperature (25 °C), 24 h, high nominal conc.
[16] = room temperature (25 °C), 24 h, high nominal conc. (7.00; 44.37; 4.50; 31.25 µg/mL), n = 6
[17] = room temperature (25 °C), 24 h, low nominal conc.
[18] = room temperature (25 °C), 24 h, low nominal conc. (1.75; 11.02; 1.12; 1.95 µg/mL), n = 6
[19] = room temperature (25 °C), 24 h, medium nominal conc.
[20] = storage stability, high nominal conc.
[21] = storage stability, high nominal conc. (7.00; 44.37; 4.50; 31.25 µg/mL), n = 6
[22] = storage stability, low nominal conc.
[23] = storage stability, low nominal conc. (1.75; 11.02; 1.12; 1.95 µg/mL), n = 6
[24] = storage stability, medium nominal conc.
[25] = storage stability, medium nominal conc. (3.50; 22.18; 2.24; 7.81 µg/mL), n = 6

| Structure (SMILES) | Accuracy Bias 0 h [1, 5] | Observed Conc. 0 h [1, 6] | Accuracy Bias 0 h [1, 7] | Observed Conc. 0 h [1, 8] | Accuracy Bias 0 h [1, 9] | Accuracy Bias 8 h [1, 10] | Observed Conc. 8 h [1, 11] | Accuracy Bias 8 h [1, 12] | Observed Conc. 8 h [1, 13] | Accuracy Bias 8 h [1, 14] | Accuracy Bias 24 h [1, 15] | Observed Conc. 24 h [1, 16] | Accuracy Bias 24 h [1, 17] | Observed Conc. 24 h [1, 18] | Accuracy Bias 24 h [1, 19] | Accuracy Bias Autosampler (4 °C; 8 h) [1, 20] | Accuracy Bias Long-term (−70°C; 1 month) [1, 20] | Observed Conc. Autosampler (4 °C; 8 h) [1, 21] | Observed Conc. Long-term (−70 °C; 1 month) [1, 21] | Accuracy Bias Autosampler (4 °C; 8 h) [1, 22] | also measured |
| --- | --- | --- | --- | --- | --- | --- | --- | --- | --- | --- | --- | --- | --- | --- | --- | --- | --- | --- | --- | --- | --- |
| C[C@@H]1O[C@@H](OC[C@H]2O[C@@H](Oc3c(-c4ccc(O)c(O)c4)oc4cc(O)cc(O)c4c3=O)[C@H](O)[C@@H](O)[C@@H]2O)[C@H](O)[C@H](O)[C@H]1O [Rutin, rutin] | −1.99% | 7.27 ± 0.41 µg/mL | 5.76% | 1.74 ± 0.11 µg/mL | 3.17% | −2.45% | 7.17 ± 0.21 µg/mL | 5.46% | 1.65 ± 0.10 µg/mL | −4.97% | −3.93% | 7.13 ± 0.24 µg/mL | 0.33% | 1.64 ± 0.10 µg/mL | 2.93% | −1.17% | −1.56% | 7.08 ± 0.34 µg/mL | 7.10 ± 0.38 µg/mL | −6.41% | Observed Conc. 0 h [1]: 3.39 ± 0.16 µg/mL; Observed Conc. 8 h [1]: 3.67 ± 0.30 µg/mL; Observed Conc. 24 h [1]: 3.38 ± 0.27 µg/mL; Observed Conc. Autosampler (4 °C; 8 h) [1]: 3.44 ± 0.15 µg/mL; Observed Conc. Long-term (−70 °C; 1 month) [1]: 3.51 ± 0.28 µg/mL; Accuracy Bias Long-term (−70°C; 1 month) [1, 22]: 2.92%; Observed Conc. Autosampler (4 °C; 8 h) [1, 23]: 1.86 ± 0.19 µg/mL; Observed Conc. Long-term (−70 °C; 1 month) [1, 23]: 1.69 ± 0.12 µg/mL; Accuracy Bias Autosampler (4 °C; 8 h) [1, 24]: 1.58%; Accuracy Bias Long-term (−70°C; 1 month) [1, 24]: −0.45%; flavonoids found in the plasma after oral administration [2]: not found; absorption into the vascular space after oral administration [3]: not absorbed |
| O=C(/C=C/c1ccc(O)cc1)OC[C@H]1O[C@@H](Oc2c(-c3ccc(O)cc3)oc3cc(O)cc(O)c3c2=O)[C@H](O)[C@@H](O)[C@@H]1O [Tiliroside, tiliroside] | 1.35% | 43.77 ± 4.28 µg/mL | 4.59% | 10.54 ± 0.74 µg/mL | 3.36% | −0.64% | 44.65 ± 4.37 µg/mL | 6.26% | 10.33 ± 0.61 µg/mL | −2.95% | 7.03% | 41.25 ± 2.04 µg/mL | 4.48% | 10.53 ± 0.79 µg/mL | 7.14% | 3.66% | 0.24% | 42.74 ± 3.40 µg/mL | 44.26 ± 2.49 µg/mL | 3.97% | Observed Conc. 0 h ([1]; room temperature (25 °C), 0 h, medium nominal conc. (rutin 3.50; quercetin glucoside, quercitrin, tiliroside 22.18; kaempferol 2.24; m-HPAA, p-HPAA, DOPAC 7.81 µg/mL), n = 6): 21.44 ± 2.13 µg/mL; Observed Conc. 8 h ([1]; room temperature (25 °C), 8 h, medium nominal conc. (3.50; 22.18; 2.24; 7.81 µg/mL), n = 6): 22.84 ± 2.57 µg/mL; Observed Conc. 24 h ([1]; room temperature (25 °C), 24 h, medium nominal conc. (3.50; 22.18; 2.24; 7.81 µg/mL), n = 6): 20.60 ± 2.05 µg/mL; Accuracy Bias Long-term (−70°C; 1 month) [1, 22]: 5.54%; Observed Conc. Autosampler (4 °C; 8 h) [1, 23]: 10.58 ± 0.81 µg/mL; Observed Conc. Long-term (−70 °C; 1 month) [1, 23]: 10.40 ± 0.99 µg/mL; Accuracy Bias Autosampler (4 °C; 8 h) [1, 24]: −3.45%; Accuracy Bias Long-term (−70°C; 1 month) [1, 24]: 3.42%; Observed Conc. Autosampler (4 °C; 8 h) [1, 25]: 22.94 ± 2.25 µg/mL; Observed Conc. Long-term (−70 °C; 1 month) [1, 25]: 21.41 ± 1.82 µg/mL; permeability to the intestinal epithelial cells [4]: completely impermeable; flavonoids found in the plasma after oral administration [2]: not found |
